Assay results taken from patent US12139458B2, “(2,5-dioxopyrrolidin-1-yl)(phenyl)-acetamide derivatives and their use in the treatment of neurological diseases” (UNIWERSYTET JAGIELLONSKI, priority 2019, dated 2024).
Like-named read-outs stand apart in the source and are kept apart here.

Columns and labels:
Type in all cases: in vivo
[1] = Rotarod test (motor coordination); settings: male, Swiss albino (CD-1), mouse, in vivo, ip, mice
Summary of the method: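 Compounds were given i.p. in 1% aqueous Tween as single doses 30 min before testing, 4 mice per group, after training the day before. Mice were tested on a 2 cm rod at 10 rpm for 60 s, and failure to stay on for 1 min counted as impairment. Statistics: one-way ANOVA with Dunnett's test, p<0.05.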

[2] = test system: male Swiss albino mice (CD-1); assay: Subcutaneous pentylenetetrazole seizure test (scPTZ)
Summary of the method: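 Compounds given i.p. in 1% aqueous Tween 30 min before s.c. PTZ at 100 mg/kg. Mice observed 30 min for clonic seizures (whole-body clonus ≥3 s with loss of righting reflex); absence counted as protection. ED50 from 3-4 groups of 6 mice; screening in groups of 4.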

[3] = test system: male white Swiss mice (CD-1); assay: Formalin test (analgesic activity); settings: Mus musculus, ip, i.p., mice
Protocol: The tests were carried out using male white Swiss mice (CD-1) weighing 18-25 g. All procedures were carried out in accordance with Polish and international guidelines on ethics of animal testing, after obtaining appropriate institutional approval. The study group consisted of 8-10 animals. The tested and reference substances were administered intraperitoneally 30 minutes before given test as suspension in 1% aqueous solution of Tween. All tests/models were carried out based on the procedures described in the specialist literature: the formalin test (Beirith, A.; Santos, A. R.; Calixto, J. B.; Rodrigues, A. L.; Creczynski-Pasa, T. B. Eur. J. Pharmacol. 1998, 345, 233-245), the model of capsaicin-induced pain (Mogilski, S.; Kubacka, M.; Redzicka, A.; Kazek, G.; Dudek, M.; Malinka, W.; Filipek, B. Pharmacol. Biochem. Behav. 2015, 133, 99-110), the model of oxaliplatin-induced neuropathic pain—von Frey test (Sałat, K.; Cios, A.; Wyska, E.; Satat, R.; Mogilski, S.; Filipek, B.; Wigȩkowski, K.; Malawska, B. Pharmacol. Biochem. Behav. 2014, 122, 173-181).
The pain was induced by the subplantar injection of 20 μL of 2.5% formalin solution into the mice right hind paw. The animals were placed in separate, transparent observation chambers for a period of 30 minutes. The measured value was the total licking and biting time of the paw to which the formalin solution was injected. The nociceptive reaction time was calculated for the first 5 minutes after formalin injection (first phase of the test—acute pain) and in the 15-20, 20-25 and 25-30 minutes time intervals after its administration (second phase of the test—inflammatory pain). The observed inhibition of nociceptive reaction—reduction of paw licking and biting time, was interpreted as the analgesic effect of the compound tested. Based on the results obtained, the ED50 dose was calculated (dose that reduces the nociceptive reaction time by 50%). […] Compound 6 was administered at doses of 10 mg/kg, 20 mg/kg and 30 mg/kg.

[4] = test system: male Swiss albino mice (CD-1); assay: Psychomotor seizure test 6 Hz (44 mA)
Summary of the method: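 Male CD-1 mice (groups of 4) given compounds i.p. in 1% Tween 30 min before a 3 s, 6 Hz corneal stimulus at 44 mA after lidocaine. Psychomotor seizure signs (immobility, forelimb clonus, vibrissae twitching, Straub tail) scored over 10 s; ANOVA with Dunnett's test, p<0.05.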

[5] = screening, 100 mg/kg, time point 0.5 h

Work on `O=C(C(c1ccccc1)N1C(=O)CCC1=O)N1CCN(c2cccc(C(F)(F)F)c2)CC1` (racemic) [Compound 6, 1-(2-Oxo-1-phenyl-2-(4-(3-(trifluoromethyl)phenyl)piperazin-1-yl)ethyl)pyrrolidine-2,5-dione] yielded a TD50 at 0.5 h [1] of 196 mg/kg, an ED50 ([2]; Mus musculus, ip, 0.5 h, mice) of 59.4 mg/kg and a responders at 100 mg/kg ([2]; Mus musculus, ip, screening, 100 mg/kg i.p., 0.5 h, mice, read-out: scPTZ: number of mice protected/number of mice tested (converted)) of 100%. For the same compound, the “mice protected in the scPTZ test” value [2, 5] was 100%, the ED50 ([3]; phase I (acute pain, 0-5 min), read-out: ED50 in the first phase of the formalin test) was 28.5 mg/kg and the ED50 ([3]; phase II (inflammatory pain, 15-30 min), read-out: ED50 in the second phase of the formalin test) was 12.4 mg/kg. For the same compound, the ED50 ([4]; Mus musculus, ip, 0.5 h, mice) was 73.2 mg/kg, the “6 Hz (44 mA): number of mice protected/number of mice tested” value ([4]; screening, 100 mg/kg i.p., 0.5 h, mice) was 4/4 and the “mice protected in the 6 Hz (44 mA) test” value [4, 5] was 100%.
